Measured values taken from PubChem BioAssay AID504896 (The Scripps Research Institute Molecular Screening Center, 2011).

Biological target: cAMP-dependent protein kinase type I-alpha regulatory subunit (Bos taurus) + cAMP-dependent protein kinase catalytic subunit beta (Mus musculus) (UniProt P00514+P68181)
Assay: activation of PKA-R1A holoenzyme dissociation, dose response, counter-screen for PKA-R2B activator project, biochemical, Cy5-IP20 fluorescence polarization, 1536-well, triplicate (AID 504896)

Structure (SMILES)	EC50
CCCC(=O)Nc1ncnc2c1ncn2[C@@H]1O[C@@H]2OP(=O)(O)OC[C@H]2[C@H]1OC(=O)CCC	6700 nM
Nc1nc2c(nc(Br)n2[C@@H]2O[C@@H]3COP(=O)(O)O[C@H]3[C@H]2O)c(=O)[nH]1	7830 nM
CCOP1(=O)OCC2OC(n3cnc4c(N)ncnc43)C(O)C2O1 (stereo not given)	2680 nM

Now those with a lower EC50, led by results:

EC50	Structure (SMILES)
32.7 nM	Nc1ncnc2c1nc(Sc1ccc(Cl)cc1)n2[C@@H]1O[C@@H]2COP(=O)(O)O[C@H]2[C@H]1O
34.4 nM	Nc1ncnc2c1nc(Br)n2[C@@H]1O[C@@H]2COP(=O)(O)O[C@H]2[C@H]1O
